According to article PMC4805166, “Synthetic Cyclolipopeptides Selective against Microbial, Plant and Animal Cell Targets by Incorporation of D-Amino Acids or Histidine” (PLoS ONE, 2016):
Several values for one entry are separate records, joined by “and”; a condition that tells them apart may be missing. Equal entries are not always repeated. Where two headings read alike, the source gives them in different places. Where a SMILES comes first, the peptide text is derived from it. Side-chain parts run from the residue outwards. [ ]: non-standard residue; d: D form. The star is where a group is joined. Hexanoyl = CCCCCC(=O)*; Butyryl = CCCC(=O)*

What was measured:
[1] = test system: Fusarium oxysporum f. sp. lycopersici FOL 3 race 2; assay: MIC, antifungal growth inhibition; assay type: cell-based
Method: Fusarium oxysporum f. sp. lycopersici FOL 3 race 2 (ATCC 201829, American Type Culture Collection) was used as fungal pathogen. The strain was cultured on potato dextrose agar (PDA) plates (Difco) and microconidia were obtained after growth at 25°C. The concentration of conidia was determined using a hemacytometer and adjusted to 10^4 conidia mL^-1.
(§1) Lyophilized peptides were solubilized in sterile Milli-Q water to a final concentration of 1 mM and filter sterilized through a 0.22-μm pore filter. For minimum inhibitory concentration (MIC) assessment, dilutions of the compounds were made to obtain a stock concentration of […]. For antibacterial activity twenty microlitres of each dilution were mixed in a microtiter plate well with 20 μL of the corresponding suspension of the bacterial indicator, 160 μL of Trypticase Soy Broth (TSB) (BioMèrieux, France) to a total volume of 200 μL. For antifungal activity 20 μL of each stock solution were mixed in a microtiter plate well with 80 μL of the corresponding suspension of the fungal pathogen and 100 μL of double concentrated PDB to a total volume of 200 μL containing 0.003% w/v of choramphenicol.
(§2) Three replicates for each strain, compound and concentration were used. Microbial growth was determined by optical density measurement at 600 nm (Bioscreen C, Labsystem, Helsinki, Finland). For antibacterial activity microplates were incubated at 25°C with 20 sec shaking before hourly absorbance measurement for 48 h. For antifungal activity microplates were incubated at 20°C with 1 min shaking before absorbance measurement that were done every two hours during seven days. The experiment was repeated twice. The MIC was taken as the lowest compound concentration with no growth at the end of the experiment.

[2] = test system: Erwinia amylovora PMV6076; assay: MIC, in vitro growth inhibition; assay type: cell-based; conditions: TSB, 25°C, 48 h, OD 600 nm; tested at 3.1, 6.2, 12.5, 25, 50 μM; three replicates, experiment repeated twice; MIC = lowest concentration with no growth
Method: (§3) The following plant pathogenic bacterial strains were used: Erwinia amylovora PMV6076 (Institut National de la Recherche Agronomique, Angers, France), Pseudomonas syringae pv. syringae EPS94 (Institut de Tecnologia Agroalimentària, Universitat de Girona, Spain) and Xanthomonas axonopodis pv. vesicatoria 2133–2 (Instituto Valenciano de Investigaciones Agrarias, Valencia, Spain). All bacteria were stored in Luria Bertani (LB) broth supplemented with glycerol (20%) and maintained at -80°C. Bacteria were scrapped from LB agar after growing for 24–48 h at 25°C. The cell material was suspended in sterile water to obtain a suspension of 10^8 CFU mL^-1.
as §1, §2

[3] = test system: erythrocyte suspensions of horse blood; conditions: horse erythrocytes 5% vol/vol, TRIS buffer pH 7.2, 1 h at 37°C, absorbance 540 nm, relative to melittin 100 μM, ± confidence interval (α = 0.05); for Hemolysis (%) 150 µM: 150 µM peptide; for Hemolysis (%) 250 µM: 250 µM peptide;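 as to all read-outs here: Read-out is hemoglobin release into the supernatant, with a buffer-only blank subtracted as the 0% baseline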
Method: Blood was centrifuged at 6000g for 5 min, washed three times with TRIS buffer (10 mM TRIS, 150 mM NaCl, pH 7.2) and diluted.
Compounds were solubilized in TRIS buffer and mixed with horse erythrocytes and the final concentrations tested were 250 and 150 μM. The mixture was incubated under continuous shaking for 1 h at 37°C. Then, the tubes were centrifuged at 3500g for 10 min, 80 μL aliquots of the supernatant transferred to 100-well microplates (Bioscreen), diluted with 80 μL water, and the absorbance measured at 540 nm (Bioscreen). Complete hemolysis was obtained by the addition of melittin at 100 μM (Sigma-Aldrich Corporation, Madrid, Spain). The percentage of hemolysis (H) was calculated using the equation: H = 100×[(Op−Ob)/(Om−Ob)], where Op was the density for a given compound concentration, Ob for the buffer, and Om for the melittin positive control.

[4] = test system: Pseudomonas syringae pv. syringae EPS94; assay type: cell-based; conditions: 48 h
Method: as §3, §1, §2

[5] = test system: Xanthomonas axonopodis pv. vesicatoria 2133–2; assay type: cell-based; conditions: TSB, 25°C, 48 h, OD 600 nm; tested at 3.1, 6.2, 12.5, 25, 50 μM; three replicates, experiment repeated twice; MIC = lowest concentration with no growth
Method: as §3, §1, §2

[6] = PDB with 0.003% chloramphenicol, 20°C, seven days, OD 600 nm, tested at 3.1, 6.2, 12.5, 25, 50 μM, three replicates, repeated twice

Row | Compound | MIC Fo [1, 6] [µM] | MIC Ea [2] [µM] | Hemolysis (%) 150 µM [3] [%] | Hemolysis (%) 250 µM [3] [%] | MIC Pss [4] [µM] | MIC Xav [5] | MIC Fo [1] [µM]
1 | CCCCCC(=O)NCCCC[C@@H]1NC(=O)[C@H](CCCCN)NC(=O)[C@H](CCC(N)=O)NC(=O)[C@H](CC(C)C)NC(=O)[C@H](CCCCN)NC(=O)[C@H](CCCCN)NC(=O)[C@@H](Cc2ccccc2)NC(=O)[C@H](CCCCN)NC(=O)[C@H](CCCCN)NC(=O)[C@H](CC(C)C)NC1=O [BPC680, c(KK(CO-nC5H11)LKKfKKLQ)] (cyclo(KK(Hexanoyl)LKK[dF]KKLQ)) | 3.1 to 6.2 | 25 to 50 | 77 ± 2 | 81 ± 4 | 25 to 50 | 12.5 to 25 µM | –
2 | CCCCCC(=O)NCCCC[C@@H]1NC(=O)[C@H](CCCCN)NC(=O)[C@H](CCC(N)=O)NC(=O)[C@H](CC(C)C)NC(=O)[C@H](CCCCN)NC(=O)[C@H](CCCCN)NC(=O)[C@H](Cc2c[nH]cn2)NC(=O)[C@H](CCCCN)NC(=O)[C@H](CCCCN)NC(=O)[C@H](CC(C)C)NC1=O [BPC682] (cyclo(HKKLQKK(Hexanoyl)LKK)) | 3.1 to 6.2 | 25 to 50 | 20 ± 3 | 27 ± 1 | 12.5 to 25 | 12.5 to 25 µM | –
3 | CCCCCC(=O)NCCCC[C@H]1NC(=O)[C@H](CCC(N)=O)NC(=O)[C@H](CC(C)C)NC(=O)[C@H](CCCCN)NC(=O)[C@H](CCCCN)NC(=O)[C@H](Cc2ccccc2)NC(=O)[C@H](CCCCN)NC(=O)[C@H](CCCCN)NC(=O)[C@H](CC(C)C)NC(=O)[C@H](CCCCN)NC1=O [BPC684] (cyclo(FKKLQ[dK](Hexanoyl)KLKK)) | 6.2 to 12.5 | 25 to 50 | 8 ± 1 | – | 12.5 to 25 | 6.2 to 12.5 µM | –
4 | CCCC(=O)NCCCC[C@H]1NC(=O)[C@H](CCCCN)NC(=O)[C@H](CCC(N)=O)NC(=O)[C@H](CC(C)C)NC(=O)[C@H](CCCCN)NC(=O)[C@H](CCCCN)NC(=O)[C@H](Cc2ccccc2)NC(=O)[C@H](CCCCN)NC(=O)[C@H](CCCCN)NC(=O)[C@H](CC(C)C)NC1=O [BPC704] (cyclo(FKKLQK[dK](Butyryl)LKK)) | 12.5 to 25 | 25 to 50 | 9 ± 1 | 16 ± 2 | 6.2 to 12.5 | 6.2 to 12.5 µM | –
5 | CCCC(=O)NCCCC[C@@H]1NC(=O)[C@H](CCC(N)=O)NC(=O)[C@H](CC(C)C)NC(=O)[C@H](CCCCN)NC(=O)[C@H](CCCCN)NC(=O)[C@H](Cc2ccccc2)NC(=O)[C@H](CCCCN)NC(=O)[C@H](CCCCN)NC(=O)[C@H](CC(C)C)NC(=O)[C@H](CCCCN)NC1=O [BPC710] (cyclo(FKKLQK(Butyryl)KLKK)) | <3.1 | 25 to 50 | 7 ± 1 | – | 12.5 to 25 | 3.1 to 6.2 µM | –
6 | CCCC(=O)NCCCC[C@@H]1NC(=O)[C@H](CCCCN)NC(=O)[C@H](CC(C)C)NC(=O)[C@H](CCCCN)NC(=O)[C@H](CCCCN)NC(=O)[C@H](CCC(N)=O)NC(=O)[C@H](CC(C)C)NC(=O)[C@H](CCCCN)NC(=O)[C@H](CCCCN)NC(=O)[C@@H](Cc2ccccc2)NC1=O [BPC712, c(KKLKK(CO-C3H7)fKKLQ)] (cyclo(KKLKK(Butyryl)[dF]KKLQ)) | 3.1 to 6.2 | 25 to 50 | 30 ± 4 | 38 ± 7 | 12.5 to 25 | 3.1 to 12.5 µM and 3.1 to 6.2 µM | 3.1 to 6.2
7 | CCCC(=O)NCCCC[C@@H]1NC(=O)[C@H](CCC(N)=O)NC(=O)[C@H](CC(C)C)NC(=O)[C@H](CCCCN)NC(=O)[C@H](CCCCN)NC(=O)[C@@H](Cc2ccccc2)NC(=O)[C@H](CCCCN)NC(=O)[C@H](CCCCN)NC(=O)[C@H](CC(C)C)NC(=O)[C@H](CCCCN)NC1=O [BPC716, c(K(CO-C3H7)KLKKfKKLQ)] (cyclo(K(Butyryl)KLKK[dF]KKLQ)) | 3.1 to 6.2 | 25 to 50 | 2 ± 1 | 4 ± 0.5 | 12.5 to 25 | 25 to 50 µM | –
8 | CCCC(=O)NCCCC[C@@H]1NC(=O)[C@H](CCCCN)NC(=O)[C@H](CC(C)C)NC(=O)[C@H](CCCCN)NC(=O)[C@H](CCCCN)NC(=O)[C@H](CCC(N)=O)NC(=O)[C@H](CC(C)C)NC(=O)[C@H](CCCCN)NC(=O)[C@H](CCCCN)NC(=O)[C@H](Cc2c[nH]cn2)NC1=O [BPC718, c(KKLKK(CO-C3H7)HKKLQ)] (cyclo(HKKLQKKLKK(Butyryl))) | 6.2 to 12.5 | >50 | 3 ± 1 | 4 ± 1 | 12.5 to 25 | 12.5 to 25 µM | –
9 | CCCC(=O)NCCCC[C@@H]1NC(=O)[C@H](CCCCN)NC(=O)[C@H](CCC(N)=O)NC(=O)[C@H](CC(C)C)NC(=O)[C@H](CCCCN)NC(=O)[C@H](CCCCN)NC(=O)[C@H](Cc2c[nH]cn2)NC(=O)[C@H](CCCCN)NC(=O)[C@H](CCCCN)NC(=O)[C@H](CC(C)C)NC1=O [BPC720] (cyclo(HKKLQKK(Butyryl)LKK)) | <3.1 | >50 | 3 ± 1 | 4 ± 1 | 12.5 to 25 | 12.5 to 25 µM | –
10 | CCCC(=O)NCCCC[C@@H]1NC(=O)[C@H](CCC(N)=O)NC(=O)[C@H](CC(C)C)NC(=O)[C@H](CCCCN)NC(=O)[C@H](CCCCN)NC(=O)[C@H](Cc2c[nH]cn2)NC(=O)[C@H](CCCCN)NC(=O)[C@H](CCCCN)NC(=O)[C@H](CC(C)C)NC(=O)[C@H](CCCCN)NC1=O [BPC722] (cyclo(HKKLQK(Butyryl)KLKK)) | 3.1 to 6.2 | >50 | 3 ± 0.2 | 3 ± 0.1 | >50 | 25 to 50 µM | –
11 | CCCC(=O)N[C@@H](CCCCN)C(=O)N[C@@H](CC(C)C)C(=O)NCCCC[C@H]1NC(=O)[C@H](CCCCN)NC(=O)[C@H](CC(C)C)NC(=O)[C@H](CCCCN)NC(=O)[C@H](CCCCN)NC(=O)[C@H](CCC(N)=O)NC(=O)[C@H](CC(C)C)NC(=O)[C@H](CCCCN)NC(=O)[C@H](CCCCN)NC(=O)[C@H](Cc2ccccc2)NC1=O [BPC724, c(KKLKk(LK-CO-C3H7)FKKLQ)] (cyclo(FKKLQKKLK[dK]([Leu-Lys-Butyryl]))) | <3.1 | 25 to 50 | 3 ± 2 | 3 ± 0.5 | 12.5 to 25 | 6.2 to 12.5 µM | –
